Laboratory results from patent US12435087B2, “Modulators of DCN-1 and methods of use thereof” (Cellarity, Inc., priority 2023, dated 2025).

Experiments:
DCN1 protein = DCN1 protein (Homo sapiens (Human), UniProt Q96GG9); assay: Intact protein MS analysis with the RapidFire-TOF system (covalent adduct formation); format: binding; details: 400 nM DCN1, incubated at room temperature for 3 hours
Summary of the method: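 Tag-free His-TEV-DCN1 expressed in E. coli at 400 nM in 25 mM Tris-HCl, 200 mM NaCl, 1 mM DTT, incubated with 11 compound concentrations at room temperature for 3 h unless otherwise specified. Quenched with 0.2% formic acid; intact-protein RapidFire Q-TOF MS, deconvoluted to detect parent and compound-adduct masses.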

[1] = target: DCN1 (DCUND1) protein PONY domain (Homo sapiens (Human), UniProt Q96GG9); assay: Off-rate measurement of reversible covalent molecules (jump dilution TR-FRET with Cy5 probe); details: binding mode from off-rate measurement
Sequence of DCN1 (DCUND1) protein PONY domain (Q96GG9 60-248): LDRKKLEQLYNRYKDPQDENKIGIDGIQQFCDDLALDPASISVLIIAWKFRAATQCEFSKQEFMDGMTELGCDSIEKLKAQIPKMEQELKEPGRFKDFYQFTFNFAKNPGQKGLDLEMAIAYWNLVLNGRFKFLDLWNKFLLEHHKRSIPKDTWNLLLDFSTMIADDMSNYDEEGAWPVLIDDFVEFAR
Method: A TR-FRET assay was performed to classify the compounds as an irreversible covalent binder, a reversible covalent binder or a reversible binder.
An assay to measure the off-rate of reversible covalent molecules was developed. A typical covalent compound is assumed to stay bound to a protein for at least the life of that protein in the cell. In reality, there is a range of how long a covalent compounds remains bound before a reverse reaction takes place. Thus, some covalent bonds can be labeled as reversible as their reverse reaction takes place in a measurable amount of time under physiological conditions. The assay capitalizes on the range of covalent binders by using a high affinity covalent binder as a probe to displace the more reversible binders in an adaptation of the jump dilution method.
In this version of the jump dilution method, the increase in covalent probe binding over time was measured through a TR-FRET reaction between the covalent probe and the biotinylated target protein.
The recombinant form of the DCN1 (DCUND1) protein PONY domain was produced using an E. coli expression system at Viva Biotech (China). The DCN1 protein was biotinylated (EZ sulfo-NHS-LC-biotin; Thermofisher) for labeling with streptavidin terbium (Tb) cryptate in the reaction. This biotinylated protein was used in two forms of the TR-FRET assay as described below.
The off-rate measurement is executed in two steps based on the jump dilution method. […] The greatest dilution allowed within the constraints of the assay was chosen. These factors allow a competitive advantage for the covalent probe to replace the test compound when that compound releases from the target protein. The actual measure is the rate of increased TR-FRET signal as the covalent probe replaces the test compound over time. […] The resulting time dependent curve of the TR-FRET signal is fit to the following equation: Y=Y0+(Plateau−Y0)*(1−exp(−K*x))
K is the rate constant (1/unit of time). The residence time is defined as the inverse of K, the rate constant. The half-life is calculated as ln(2)/K.

Sequence of DCN1 protein (Q96GG9 whole entry): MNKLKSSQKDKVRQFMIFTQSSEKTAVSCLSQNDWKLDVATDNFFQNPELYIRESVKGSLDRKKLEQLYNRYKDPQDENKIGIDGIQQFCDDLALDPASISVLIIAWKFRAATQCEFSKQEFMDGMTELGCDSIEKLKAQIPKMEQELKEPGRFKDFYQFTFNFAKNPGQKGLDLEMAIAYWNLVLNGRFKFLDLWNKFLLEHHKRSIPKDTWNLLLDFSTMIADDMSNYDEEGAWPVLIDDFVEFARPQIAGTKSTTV

SMILES | Emax (DCN1 protein) | Category [1]
C=C(CN1CCOCC1)C(=O)Nc1cccc([C@@H]2c3c(C)nn(-c4ccccc4)c3N(CC)C(=O)[C@H]2NC(=O)c2cccc(C(F)(F)F)c2)c1 [Compound I-2, N-((4R,5S)-7-ethyl-3-methyl-4-(3-(2-(morpholinomethyl)acrylamido)phenyl)-6-oxo-1-phenyl-4,5,6,7-tetrahydro-1H-pyrazolo[3,4-b]pyridin-5-yl)-3-(trifluoromethyl)benzamide] | 80 to 100% | irreversible
C/C=C(\CN1CCN(C2COC2)CC1)C(=O)Nc1cccc([C@@H]2c3cnn(-c4ccccc4)c3N(CC)C(=O)[C@H]2NC(=O)c2csc(C(F)(F)F)n2)c1 [Compound I-234, N-((4R,5S)-7-ethyl-4-(3-((E)-2-((4-(oxetan-3-yl)piperazin-1-yl)methyl)but-2-enamido)phenyl)-6-oxo-1-phenyl-4,5,6,7-tetrahydro-1H-pyrazolo[3,4-b]pyridin-5-yl)-2-(trifluoromethyl)thiazole-4-carboxamide] | 80 to 100% | irreversible
